The numbers were not newly measured in patent US5756508A, “Muscarine antagonists” (Merck & Co., Inc., priority 1996, dated 1998), which cites them from elsewhere.

The conditions of data set [1]: background statement.
For data set [2], the system named is pupil; ciliary muscle. The note with it: background statement.
The subject of data set [3] is muscarinic receptors (antimuscarinic). The following applies: background statement.
The test system of data set [4] is axial elongation of the eye. The following applies: background statement.
The subject of data set [5] is smooth muscle (ordinarily called m3 type). The following applies: background statement.

SMILES strings stand for the structures.

For the compound `CN1[C@@H]2CC[C@H]1C[C@@H](OC(=O)C(CO)c1ccccc1)C2` (stereo partly drawn) [atropine], the sensitization result in data set [1] is “test positive in sensitization assays”. Besides, in data set [2], the “impairment of ocular focusing / near visual work” value is listed as “impairs near visual work like reading” and the “pupil dilation (mydriasis)” value is “causes mydriasis (increase of pupil size)”. The “antimuscarinic action / specificity” value in data set [3] is on record as “long-acting non-specific antimuscarinic agent”.

Regarding `CN1CCN(CC(=O)N2c3ccccc3C(=O)Nc3cccnc32)CC1` [pirenzepine], in data set [1], the sensitization result is on record as “test positive in sensitization assays”. Further, the “inhibition of axial elongation / enlargement of the eye” value in data set [4] is “inhibits axial elongation”. The “pupil dilation (mydriasis)” value in data set [2] was “far less effective at pupil dilation than atropine”.

Consider `C[N+]1(C)CCC(OC(=O)C(c2ccccc2)c2ccccc2)CC1` [Example 4-DAMP, 4-diphenylacetoxy-N-methylpiperadine methiodide], for which the “selectivity for smooth muscle (m3 type) receptors” value in data set [5] is given as “relatively selective antagonist for smooth muscle”.

Consider `CN1CCc2cccc3c2[C@H]1Cc1ccc(O)c(O)c1-3` [apomorphine], for which the “inhibition of axial elongation / enlargement of the eye” value in data set [4] was “found to inhibit or actually prevent the axial enlargement of the eye”.
